Test results: ChEMBL document CHEMBL1201862, “PubChem BioAssay data set” (2004)
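All cell lines were grown in 96-well plates and treated with compound for 48 hours. GI50 = concentration required for 50% inhibition of growth.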 Activity calls are given as the source filed them. Rule as the data show it: active = GI50 up to about 1.1 µM and inactive = higher.

Key:
Assay in all cases: NCI tumour cell line growth inhibition, 48 h
786-0 = tested on: 786-0
A498 = tested on: A498
A549 = tested on: A549
ACHN = tested on: ACHN
CAKI-1 = tested on: CAKI-1
CCRF-CEM = tested on: CCRF-CEM
DLD-1 = tested on: DLD-1
DMS-114 = tested on: DMS-114
DMS-273 = tested on: DMS-273
EKVX = tested on: EKVX
HCC 2998 = tested on: HCC 2998
HCT-116 = tested on: HCT-116
HCT-15 = tested on: HCT-15
HL-60 = tested on: HL-60
HOP-18 = tested on: HOP-18
HOP-62 = tested on: HOP-62
HOP-92 = tested on: HOP-92
HT-29 = tested on: HT-29
IGROV-1 = tested on: IGROV-1
K562 = tested on: K562
KM-20L2 = tested on: KM-20L2
KM12 = tested on: KM12
LOX IMVI = tested on: LOX IMVI
LXFL 529 = tested on: LXFL 529
M14 = tested on: M14
M19-MEL = tested on: M19-MEL
MOLT-4 = tested on: MOLT-4
Malme-3M = tested on: Malme-3M
NCI-H23 = tested on: NCI-H23
NCI-H460 = tested on: NCI-H460
NCI-H522 = tested on: NCI-H522
OVCAR-4 = tested on: OVCAR-4
OVCAR-5 = tested on: OVCAR-5
OVCAR-8 = tested on: OVCAR-8
RPMI-8226 = tested on: RPMI-8226
RXF 393 = tested on: RXF 393
RXF 631 = tested on: RXF 631
SF-268 = tested on: SF-268
SF-295 = tested on: SF-295
SF-539 = tested on: SF-539
SK-MEL-28 = tested on: SK-MEL-28
SK-MEL-2 = tested on: SK-MEL-2
SK-MEL-5 = tested on: SK-MEL-5
SK-OV-3 = tested on: SK-OV-3
SN12C = tested on: SN12C
SNB-19 = tested on: SNB-19
SNB-75 = tested on: SNB-75
SNB-78 = tested on: SNB-78
SR = tested on: SR
SW-620 = tested on: SW-620
TK-10 = tested on: TK-10
U-251 = tested on: U-251
UACC-257 = tested on: UACC-257
UACC-62 = tested on: UACC-62
UO-31 = tested on: UO-31
XF498 = tested on: XF498
COLO 205 = tested on: COLO 205
NCI-H226 = tested on: NCI-H226
OVCAR-3 = tested on: OVCAR-3

Structure (SMILES): CCCCCCCCCCCCNC(=S)OCCCC
- GI50 (786-0): > 100 µM (inactive)
- GI50 (A498): > 100 µM (inactive)
- GI50 (A549): > 100 µM (inactive)
- GI50 (ACHN): > 100 µM (inactive)
- GI50 (CAKI-1): > 100 µM (inactive)
- GI50 (CCRF-CEM): 29.4 µM (inactive)
- GI50 (DLD-1): > 100 µM (inactive)
- GI50 (DMS-114): 34.8 µM (inactive)
- GI50 (DMS-273): > 100 µM (inactive)
- GI50 (EKVX): > 100 µM (inactive)
- GI50 (HCC 2998): > 100 µM (inactive)
- GI50 (HCT-116): 50.7 µM (inactive)
- GI50 (HCT-15): > 100 µM
- GI50 (HL-60): 16.4 µM (inactive)
- GI50 (HOP-18): > 100 µM (inactive)
- GI50 (HOP-62): > 100 µM (inactive)
- GI50 (HOP-92): > 100 µM (inactive)
- GI50 (HT-29): 72.3 µM (inactive)
- GI50 (IGROV-1): > 100 µM (inactive)
- GI50 (K562): 65.3 µM (inactive)
- GI50 (KM-20L2): > 100 µM (inactive)
- GI50 (KM12): 28 µM (inactive)
- GI50 (LOX IMVI): 15.8 µM (inactive)
- GI50 (LXFL 529): > 100 µM (inactive)
- GI50 (M14): > 100 µM (inactive)
- GI50 (M19-MEL): 42.2 µM (inactive)
- GI50 (MOLT-4): 17.9 µM (inactive)
- GI50 (Malme-3M): > 100 µM (inactive)
- GI50 (NCI-H23): > 100 µM (inactive)
- GI50 (NCI-H460): > 100 µM (inactive)
- GI50 (NCI-H522): > 100 µM (inactive)
- GI50 (OVCAR-4): > 100 µM (inactive)
- GI50 (OVCAR-5): 31.8 µM (inactive)
- GI50 (OVCAR-8): > 100 µM (inactive)
- GI50 (RPMI-8226): 15.7 µM (inactive)
- GI50 (RXF 393): > 100 µM (inactive)
- GI50 (RXF 631): > 100 µM (inactive)
- GI50 (SF-268): > 100 µM (inactive)
- GI50 (SF-295): > 100 µM (inactive)
- GI50 (SF-539): > 100 µM (inactive)
- GI50 (SK-MEL-28): 76.6 µM (inactive)
- GI50 (SK-MEL-2): 17.2 µM (inactive)
- GI50 (SK-MEL-5): 81.3 µM (inactive)
- GI50 (SK-OV-3): > 100 µM (inactive)
- GI50 (SN12C): 59.2 µM (inactive)
- GI50 (SNB-19): > 100 µM (inactive)
- GI50 (SNB-75): > 100 µM (inactive)
- GI50 (SNB-78): > 100 µM (inactive)
- GI50 (SR): 30.1 µM (inactive)
- GI50 (SW-620): > 100 µM (inactive)
- GI50 (TK-10): 19.7 µM (inactive)
- GI50 (U-251): 63.7 µM (inactive)
- GI50 (UACC-257): 35.7 µM (inactive)
- GI50 (UACC-62): > 100 µM (inactive)
- GI50 (UO-31): > 100 µM (inactive)
- GI50 (XF498): > 100 µM (inactive)

Structure (SMILES): Cc1cc(=O)n2c3c(c4c(cc13)c(CO)cc(=O)n4C)OC2
- GI50 (786-0): 12.6 µM (inactive)
- GI50 (A498): 14.6 µM (inactive)
- GI50 (A549): 36.1 µM (inactive)
- GI50 (ACHN): 9.57 µM (inactive)
- GI50 (CAKI-1): 30.7 µM (inactive)
- GI50 (CCRF-CEM): 9.46 µM (inactive)
- GI50 (COLO 205): 16.5 µM (inactive)
- GI50 (DLD-1): 15.7 µM (inactive)
- GI50 (DMS-114): 14.1 µM (inactive)
- GI50 (DMS-273): 8.85 µM (inactive)
- GI50 (EKVX): 64.4 µM (inactive)
- GI50 (HCC 2998): 14.8 µM (inactive)
- GI50 (HCT-116): 4.45 µM (inactive)
- GI50 (HOP-18): 19.5 µM (inactive)
- GI50 (HOP-62): 13 µM (inactive)
- GI50 (HOP-92): 24.4 µM (inactive)
- GI50 (HT-29): 19.5 µM (inactive)
- GI50 (IGROV-1): 34.8 µM (inactive)
- GI50 (K562): 5.56 µM (inactive)
- GI50 (KM-20L2): 29.9 µM (inactive)
- GI50 (KM12): 7.94 µM (inactive)
- GI50 (LOX IMVI): 6.85 µM (inactive)
- GI50 (LXFL 529): 5.07 µM (inactive)
- GI50 (M14): 20.6 µM (inactive)
- GI50 (M19-MEL): 12.2 µM (inactive)
- GI50 (Malme-3M): 8.65 µM (inactive)
- GI50 (NCI-H226): 5.22 µM (inactive)
- GI50 (NCI-H23): 13.5 µM (inactive)
- GI50 (NCI-H460): 18 µM (inactive)
- GI50 (NCI-H522): 4.94 µM (inactive)
- GI50 (OVCAR-3): 11.8 µM (inactive)
- GI50 (OVCAR-4): 17.5 µM (inactive)
- GI50 (OVCAR-5): 16.5 µM (inactive)
- GI50 (OVCAR-8): 6.67 µM (inactive)
- GI50 (RPMI-8226): 32.1 µM (inactive)
- GI50 (RXF 631): 5.6 µM (inactive)
- GI50 (SF-268): 8.18 µM (inactive)
- GI50 (SF-295): 30.3 µM (inactive)
- GI50 (SF-539): 7.73 µM (inactive)
- GI50 (SK-MEL-28): 18.8 µM (inactive)
- GI50 (SK-MEL-2): 7.46 µM (inactive)
- GI50 (SK-MEL-5): 20.1 µM (inactive)
- GI50 (SK-OV-3): 20 µM (inactive)
- GI50 (SN12C): 12.9 µM (inactive)
- GI50 (SNB-19): 10.5 µM (inactive)
- GI50 (SNB-75): 19.9 µM (inactive)
- GI50 (SNB-78): 15 µM (inactive)
- GI50 (SW-620): 5.71 µM (inactive)
- GI50 (TK-10): 11.8 µM (inactive)
- GI50 (U-251): 6.14 µM (inactive)
- GI50 (UACC-257): 26.2 µM (inactive)
- GI50 (UACC-62): 12.5 µM (inactive)
- GI50 (UO-31): 7.69 µM (inactive)
- GI50 (XF498): 10.7 µM (inactive)

Structure (SMILES): Cc1cc2c(c(C#N)c1C)NC(=O)C(CC(=O)O)C2=O (stereo unspecified)
- GI50 (786-0): > 100 µM (inactive)
- GI50 (A498): > 100 µM (inactive)
- GI50 (A549): > 100 µM (inactive)
- GI50 (ACHN): > 100 µM (inactive)
- GI50 (CAKI-1): > 100 µM (inactive)
- GI50 (CCRF-CEM): > 100 µM (inactive)
- GI50 (COLO 205): > 100 µM (inactive)
- GI50 (DLD-1): > 100 µM (inactive)
- GI50 (DMS-114): > 100 µM (inactive)
- GI50 (DMS-273): > 100 µM (inactive)
- GI50 (EKVX): > 100 µM (inactive)
- GI50 (HCC 2998): > 100 µM (inactive)
- GI50 (HCT-116): > 100 µM (inactive)
- GI50 (HCT-15): > 100 µM
- GI50 (HL-60): > 100 µM (inactive)
- GI50 (HOP-18): > 100 µM (inactive)
- GI50 (HOP-62): > 100 µM (inactive)
- GI50 (HOP-92): > 100 µM (inactive)
- GI50 (HT-29): > 100 µM (inactive)
- GI50 (IGROV-1): > 100 µM (inactive)
- GI50 (K562): > 100 µM (inactive)
- GI50 (KM-20L2): > 100 µM (inactive)
- GI50 (KM12): > 100 µM (inactive)
- GI50 (LOX IMVI): > 100 µM (inactive)
- GI50 (LXFL 529): > 100 µM (inactive)
- GI50 (M14): > 100 µM (inactive)
- GI50 (M19-MEL): > 100 µM (inactive)
- GI50 (MOLT-4): > 100 µM (inactive)
- GI50 (Malme-3M): > 100 µM (inactive)
- GI50 (NCI-H226): > 100 µM (inactive)
- GI50 (NCI-H23): > 100 µM (inactive)
- GI50 (NCI-H460): > 100 µM (inactive)
- GI50 (OVCAR-3): > 100 µM (inactive)
- GI50 (OVCAR-4): > 100 µM (inactive)
- GI50 (OVCAR-5): > 100 µM (inactive)
- GI50 (OVCAR-8): > 100 µM (inactive)
- GI50 (RPMI-8226): > 100 µM (inactive)
- GI50 (RXF 393): > 100 µM (inactive)
- GI50 (RXF 631): > 100 µM (inactive)
- GI50 (SF-268): > 100 µM (inactive)
- GI50 (SF-295): > 100 µM (inactive)
- GI50 (SF-539): > 100 µM (inactive)
- GI50 (SK-MEL-28): > 100 µM (inactive)
- GI50 (SK-MEL-2): > 100 µM (inactive)
- GI50 (SK-MEL-5): > 100 µM (inactive)
- GI50 (SK-OV-3): > 100 µM (inactive)
- GI50 (SN12C): > 100 µM (inactive)
- GI50 (SNB-75): > 100 µM (inactive)
- GI50 (SNB-78): > 100 µM (inactive)
- GI50 (SW-620): > 100 µM (inactive)
- GI50 (TK-10): > 100 µM (inactive)
- GI50 (U-251): > 100 µM (inactive)
- GI50 (UACC-257): > 100 µM (inactive)
- GI50 (UACC-62): > 100 µM (inactive)
- GI50 (UO-31): > 100 µM (inactive)
- GI50 (XF498): > 100 µM (inactive)
